Reference: ChEMBL document CHEMBL3046401, “Synthesis, X-ray structure and antiproliferative activity of 3-benzylthio-4-propargylselenoquinoline” (2010)
Values after ≈ are worked out from the molar mass of the structure shown.

Legend:
Format in all cases: functional
Conditions in all cases: read-out: ID50 (the source's name)
[1] = Antiproliferative activity against Homo sapiens (human) SW707 cells by SRB assay
T47D = assay: Antiproliferative activity against Homo sapiens (human) T47D cells by SRB assay
[2] = Antiproliferative activity against Homo sapiens (human) HCV29T cells by SRB assay
A549 = assay: Antiproliferative activity against Homo sapiens (human) A549 cells by SRB assay

Structure (SMILES): C#CC[Se]c1c(SC)cnc2ccccc12 [3-METHYLTHIO-4-PROPARGYLSELENOQUINOLINE]
- IC50 [1]: 0.6 µg/mL (≈ 2.05 µM)
- IC50 (T47D): 2.5 µg/mL (≈ 8.55 µM)
- IC50 [2]: 1.8 µg/mL (≈ 6.16 µM)

Structure (SMILES): C#CCSc1c(SC)cnc2ccccc12 [3-METHYLTHIO-4-PROPARGYLTHIOQUINOLINE]
- IC50 [1]: 17.6 µg/mL (≈ 71.7 µM)
- IC50 (T47D): 18.4 µg/mL (≈ 75 µM)
- IC50 [2]: 5.7 µg/mL (≈ 23.2 µM)
- IC50 (A549): 6.8 µg/mL (≈ 27.7 µM)

Structure (SMILES): C#CC[Se]c1c(SCc2ccccc2)cnc2ccccc12 [3-BENZYLTHIO-4-PROPARGYLSELENOQUINOLINE]
- IC50 [1]: > 100 µg/mL
- IC50 (T47D): > 100 µg/mL
- IC50 [2]: > 100 µg/mL
- IC50 (A549): > 100 µg/mL
